Paper PMC7158045 (BMC Plant Biology, 2020)
Structures can show the parent of a compound that is named as a salt.

Tests used:
Test in all cases: biochemical
[1] = target: T1, ZmDRIK1-K217-P492 (Zea mays, UniProt C0P4K9); conditions: read-out: dTm B, sheet ZmDRIK1-K217-P492;; DSF, Boltzmann fit, 0.1% DMSO
T1 construct: kinase domain, K217-P492
T1 sequence (C0P4K9 1-514): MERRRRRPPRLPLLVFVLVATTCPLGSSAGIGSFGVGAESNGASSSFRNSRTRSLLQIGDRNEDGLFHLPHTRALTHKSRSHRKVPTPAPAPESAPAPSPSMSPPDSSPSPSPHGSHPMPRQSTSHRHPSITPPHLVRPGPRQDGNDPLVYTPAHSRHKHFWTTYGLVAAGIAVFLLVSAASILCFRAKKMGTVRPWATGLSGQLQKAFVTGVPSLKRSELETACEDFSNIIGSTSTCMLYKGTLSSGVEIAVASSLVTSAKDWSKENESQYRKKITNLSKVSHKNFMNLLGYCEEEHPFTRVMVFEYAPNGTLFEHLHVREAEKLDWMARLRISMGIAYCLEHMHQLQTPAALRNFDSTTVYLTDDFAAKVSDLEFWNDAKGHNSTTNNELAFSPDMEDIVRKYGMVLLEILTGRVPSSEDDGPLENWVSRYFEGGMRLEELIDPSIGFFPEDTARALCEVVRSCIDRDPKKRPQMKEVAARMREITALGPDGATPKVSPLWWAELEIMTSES

[2] = target: T2, ZmDRIK1-R187-P492 (Zea mays, UniProt C0P4K9); conditions: read-out: dTm B, DSF, Boltzmann fit, 0.1% DMSO
T2 construct: kinase domain, R187-P492
T2 sequence (C0P4K9 1-514): T1 sequence (C0P4K9 1-514)

[3] = target: T3, ZmDRIK1 (DROUGHT RESPONSIVE INACTIVE KINASE 1), kinase domain (Zea mays, UniProt C0P4K9); conditions: read-out: dTm B, sheet ZmDRIK1-R187-S514;; DSF, Boltzmann fit, 0.1% DMSO
T3 construct: gene ZEAMMB73_Zm00001d028770; ZmDRIK1-KD R187-S514 (kinase domain)
T3 sequence (C0P4K9 187-514): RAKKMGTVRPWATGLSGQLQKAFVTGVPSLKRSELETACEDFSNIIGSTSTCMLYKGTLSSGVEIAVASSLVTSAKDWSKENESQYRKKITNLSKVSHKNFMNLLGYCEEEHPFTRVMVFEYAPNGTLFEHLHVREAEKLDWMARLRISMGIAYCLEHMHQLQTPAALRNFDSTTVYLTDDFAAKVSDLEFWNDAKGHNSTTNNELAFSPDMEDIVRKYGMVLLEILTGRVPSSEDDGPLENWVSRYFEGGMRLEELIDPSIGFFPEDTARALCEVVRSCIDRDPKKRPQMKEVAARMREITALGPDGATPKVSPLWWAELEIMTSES

[4] = target: T4, ZmDRIK1-K217-S514 (Zea mays, UniProt C0P4K9); conditions: read-out: dTm B, sheet ZmDRIK1-K217-S514;; DSF, Boltzmann fit, 0.1% DMSO
T4 construct: kinase domain, K217-S514
T4 sequence (C0P4K9 1-514): T1 sequence (C0P4K9 1-514)

SMILES: O=c1[nH]c2ccc(Cl)cc2c(N[C@@H]2CN3CCC2CC3)c1-c1nc2ccccc2[nH]1 [CHIR-124]
- ΔTm at 10 µM [1]: -0.621 °C
- ΔTm at 10 µM [2]: -0.356 °C
- ΔTm at 10 µM [3]: -0.602 °C
- ΔTm at 10 µM [4]: -0.3 °C

SMILES: CO[C@H]1C[C@@H]2CC[C@@H](C)[C@@](O)(O2)C(=O)C(=O)N2CCCC[C@H]2C(=O)O[C@H]([C@H](C)C[C@@H]2CC[C@H](n3cnnn3)[C@H](OC)C2)CC(=O)[C@H](C)/C=C(\C)[C@@H](O)[C@@H](OC)C(=O)[C@H](C)C[C@H](C)/C=C/C=C/C=C/1C [Zotarolimus(ABT-578)]
- ΔTm at 10 µM [1]: -0.534 °C
- ΔTm at 10 µM [2]: -0.286 °C
- ΔTm at 10 µM [3]: -0.396 °C
- ΔTm at 10 µM [4]: -0.269 °C

SMILES: Cc1cc(F)c(Nc2ncnc3cc(OCc4ccccc4)ccc23)cc1O [ZM 323881 HCl]
- ΔTm at 10 µM [1]: -0.816 °C
- ΔTm at 10 µM [2]: -1.9 °C
- ΔTm at 10 µM [3]: -1.06 °C
- ΔTm at 10 µM [4]: -0.146 °C

SMILES: O=c1cc(CN2CCOCC2)occ1OCCCCCSc1ccnc2cc(C(F)(F)F)ccc12 [EHT 1864]
- ΔTm at 10 µM [1]: -0.4 °C
- ΔTm at 10 µM [2]: -0.298 °C
- ΔTm at 10 µM [3]: -0.648 °C
- ΔTm at 10 µM [4]: -0.387 °C

SMILES: Cc1ccc(NC(=O)c2ccc(CN3CCN(C)CC3)cc2)cc1Nc1nc(-c2cccnc2)cs1 [Masitinib (AB1010)]
- ΔTm at 10 µM [1]: -0.773 °C
- ΔTm at 10 µM [2]: -0.246 °C
- ΔTm at 10 µM [3]: -0.818 °C
- ΔTm at 10 µM [4]: -0.217 °C

SMILES: O=C(NCCCNc1nc(Nc2cccc(NC(=O)N3CCCC3)c2)ncc1I)c1cccs1 [BX-795]
- ΔTm at 10 µM [1]: -1.46 °C
- ΔTm at 10 µM [2]: -1.23 °C
- ΔTm at 10 µM [3]: -0.711 °C
- ΔTm at 10 µM [4]: -1.39 °C

SMILES: C=CC(=O)Nc1cccc(Nc2nc(Nc3ccc(Oc4ccnc(C(=O)NC)c4)cc3)ncc2F)c1 [CNX-774]
- ΔTm at 10 µM [1]: -0.472 °C
- ΔTm at 10 µM [2]: -1.55 °C
- ΔTm at 10 µM [3]: -10.9 °C
- ΔTm at 10 µM [4]: -0.729 °C

SMILES: CC(C)(C)NS(=O)(=O)c1cncc(-c2cc(F)c3nc(N)nn3c2)c1 [CZC24832]
- ΔTm at 10 µM [1]: -1.04 °C
- ΔTm at 10 µM [2]: -0.444 °C
- ΔTm at 10 µM [3]: -0.757 °C
- ΔTm at 10 µM [4]: -0.339 °C

SMILES: CCN(CC)CCCCNc1ncc2cc(-c3cc(OC)cc(OC)c3)c(NC(=O)NC(C)(C)C)nc2n1 [PD173074]
- ΔTm at 10 µM [1]: -0.962 °C
- ΔTm at 10 µM [2]: -0.212 °C
- ΔTm at 10 µM [3]: -0.711 °C
- ΔTm at 10 µM [4]: -0.228 °C

SMILES: O=S(=O)(NCCNC/C=C/c1ccc(Br)cc1)c1cccc2cnccc12 [H 89 2HCl]
- ΔTm at 10 µM [1]: -0.68 °C
- ΔTm at 10 µM [2]: -0.178 °C
- ΔTm at 10 µM [3]: -0.703 °C
- ΔTm at 10 µM [4]: -0.188 °C

SMILES: CN[C@@H]1C[C@H]2O[C@@](C)([C@@H]1OC)n1c3ccccc3c3c4c(c5c6ccccc6n2c5c31)C(=O)NC4 [Staurosporine]
- ΔTm at 10 µM [1]: -0.631 °C
- ΔTm at 10 µM [2]: -0.154 °C
- ΔTm at 10 µM [3]: -0.601 °C
- ΔTm at 10 µM [4]: -0.232 °C

SMILES: O=C(NC[C@H](O)CO)c1ccncc1Nc1ccc(I)cc1F [Pimasertib (AS-703026)]
- ΔTm at 10 µM [1]: -0.841 °C
- ΔTm at 10 µM [2]: -0.33 °C
- ΔTm at 10 µM [3]: -0.651 °C
- ΔTm at 10 µM [4]: -0.594 °C

SMILES: CCN(CC)CCNC(=O)c1c(C)[nH]c(/C=C2\C(=O)Nc3ccc(F)cc32)c1C [Sunitinib Malate]
- ΔTm at 10 µM [1]: -0.864 °C
- ΔTm at 10 µM [2]: -0.348 °C
- ΔTm at 10 µM [3]: -0.745 °C
- ΔTm at 10 µM [4]: -0.287 °C

SMILES: N#Cc1c(Oc2ccc(F)c(NC(=O)Cc3cccc(C(F)(F)F)c3)c2)ccc2nc(NC(=O)C3CC3)sc12 [TAK-632]
- ΔTm at 10 µM [1]: 3.91 °C
- ΔTm at 10 µM [2]: -0.521 °C
- ΔTm at 10 µM [3]: 1.64 °C
- ΔTm at 10 µM [4]: -2.01 °C

SMILES: C=CCc1ccc(O)c(-c2ccc(O)c(CC=C)c2)c1 [Honokiol]
- ΔTm at 10 µM [1]: -1.49 °C
- ΔTm at 10 µM [2]: -0.457 °C
- ΔTm at 10 µM [3]: -0.751 °C
- ΔTm at 10 µM [4]: -0.593 °C

SMILES: C#Cc1cccc(Nc2ncnc3cc(OC)c(OCCCCCCC(=O)NO)cc23)c1 [CUDC-101]
- ΔTm at 10 µM [1]: -1.03 °C
- ΔTm at 10 µM [2]: -0.186 °C
- ΔTm at 10 µM [3]: -0.684 °C
- ΔTm at 10 µM [4]: -0.263 °C

SMILES: COc1cc2ncnc(Nc3cccc(Cl)c3)c2cc1OC [AG-1478 (Tyrphostin AG-1478)]
- ΔTm at 10 µM [1]: -0.243 °C
- ΔTm at 10 µM [2]: -0.424 °C
- ΔTm at 10 µM [3]: -0.676 °C
- ΔTm at 10 µM [4]: -0.388 °C

SMILES: COc1cc(OC)c(/C=C/S(=O)(=O)Cc2ccc(OC)c(NCC(=O)O)c2)c(OC)c1 [Rigosertib (ON-01910)]
- ΔTm at 10 µM [1]: -0.805 °C
- ΔTm at 10 µM [2]: -0.217 °C
- ΔTm at 10 µM [3]: -0.824 °C
- ΔTm at 10 µM [4]: -0.421 °C
